According to patent US20220265762A1, “COMPOSITION, COMPRISING TMEM176B OR AN EXPRESSION OR ACTIVITY REGULATOR THEREOF AS AN ACTIVE INGREDIENT, FOR PREVENTION OR TREATMENT OF DEGENERATIVE BRAIN DISEASE” (AMYLOID SOLUTION INC., priority 2019, published 2022):

What was measured:
astrocyte [1] = test: Phagocytic activity of astrocyte with overexpressed TMEM176B on FAM-labeled amyloid-beta oligomer; assay type: cell-based; details: virus-inoculated astrocytes treated with inhibitor at 0, 10, 50 μM; FIG. 3
Procedure: A TMEM176B-infected astrocyte and a normal astrocyte were separately cultured into wells of a 96-well black cell culture plate (by SPL) at a density of 50,000 cells per well, the plate using PriGrow IV medium containing 10% FBS (by GIBCO), penicillin/streptomycin (by Thermo), 10 ng/mL of human EGF (by Abm), and L-glutamine (by Abm). Here, only the astrocytes inoculated with the TMEM176B-adeno-associated virus were treated with the TMEM176B inhibitor at concentrations of 0 μM, 10 μM, and 50 μM, and then stabilized by incubation at 37° C. in a 5% CO2 incubator for 18 to 24 hours. FAM-labeled amyloid-beta (by Anaspec) was dissolved in cold PBS at a concentration of 5 μM, blocked from light, and stored in a refrigerator at 4° C. for 24 hours to prepare an oligomer. […] After 1 minute, trypan blue was removed, and the phagocytized oligomeric amyloid-beta was measured at an excitation wavelength of 485 nm/emission wavelength of 535 nm using a microplate reader capable of measuring fluorescence. […] After the incubation was completed, a washing process was performed thereon once with PBS, and the stained nuclei were measured at an excitation wavelength of 360 nm/emission wavelength of 465 nm using a microplate reader capable of measuring fluorescence.

astrocyte [2] = test: Phagocytic activity of astrocyte on FAM-labeled amyloid-beta oligomer after TMEM176B inhibitor treatment; assay type: cell-based; details: inhibitor at 0, 3.703, 11.11, 33.33, 100 μM, FIG. 1
Procedure: In detail, BAYK8644 (by Merck) was used as a TMEM176B inhibitor, a method of confirming phagocytic activity of an astrocyte (by Abm) after treatment with the inhibitor was performed as follows. The astrocyte was cultured in a 96-well black cell culture plate (by SPL) using a PriGrow IV medium containing 10% FBS (by GIBCO), penicillin/streptomycin (by Thermo), human EGF 10 ng/mL (by Abm), and L-glutamine (by Abm), and incubation thereof was started at a density of 50,000 cells per well. Here, the TMEM176B inhibitor was treated at concentrations of 0 μM, 3.703 μM, 11.11 μM, 33.33 μM, and 100 μM, and the then the cells were stabilized by incubation at 37° C. in a 5% CO2 incubator for 18 to 24 hours. Fluorescent FAM-labeled amyloid-beta was dissolved in cold PBS (by Anaspec) at a concentration of 5 μM, blocked from light, and stored in a refrigerator at 4° C. for 24 hours to prepare amyloid-beta in oligomers. […] After 1 minute, trypan blue was removed by suction, and the phagocytized oligomeric amyloid-beta was measured at an excitation wavelength of 485 nm/emission wavelength of 535 nm using a microplate reader capable of measuring fluorescence. […] After the incubation was completed, a washing process was performed thereon once with PBS, and the stained nuclei were measured at an excitation wavelength of 360 nm/emission wavelength of 465 nm.

`COC(=O)C1=C(C)NC(C)=C([N+](=O)[O-])C1c1ccccc1C(F)(F)F` (centres unmarked) [TMEM176B inhibitor, BAYK8644] was tested. Which “phagocytosis of oligomeric amyloid-beta” value (astrocyte [1]) did it give?
The value was “decreased in a concentration-dependent manner”.

And the “phagocytosis function on the amyloid-beta oligomer” value (astrocyte [2])?
The value was “decreased the phagocytosis function”.
